Laboratory results published in patent US20250163002A1, “FUSED QUINONOXIME IMIDAZOLE, ONIUM DERIVATIVES THEREOF, PREPARATION AND USE THEREOF” (SHANGHAI JIAO TONG UNIVERSITY, priority 2022, published 2025).

What was measured:
[1] = test system: Adenovirus; experiment: Antiviral activity, plaque test in 293A cells; assay type: cell-based; conditions: adenovirus in 293A cells; for non-CPE blank plaques observed: observation by day
Description: Experimental method: 4.59 mg of the compound 125 were weighed and put to a 15 mL centrifugal tube with the addition of 10 mL of sterile water, and dissolved via vortex oscillation until there was no obvious yellow particle, then subpackaged and stored at −20° C., 200 μL/piece (concentration: 1 mM); 2.79 mg Cidofovir (molecular weight: 279) were weighed and added to the 15 mL centrifugal tube, dissolved with the addition of 10 mL sterile water, then subpackaged and stored at −20° C., 200 μL/piece (concentration: 1 mM).
Plaque test: • 1. 293A cells were paved into a 24-well plate with 150,000 cells per well, and cultured at 37° C. for 12-24 h, then used for test after growing to 90%. • 2. 2% low-melting point agarose gel was melted and put to a 56° C. water bath kettle for further use. • 3. Adenovirus having a titer of 10^9 TCID^50/mL was diluted by 10^5 folds; medium in the 24-well plate was removed, and 200 μL of adenoviral diluent was added per well and incubated in a 37° C. 5% CO2 incubator, shaken once every 30 min, and incubated for 1 h in total. • 4. The drug compound 125 to be tested and Cidofovir were double diluted with 2×MEM (16 μL compound 125 was added to 8 mL of 2×MEM, oscillated and mixed well, then 4 mL mixed solution was taken and added to fresh 4 mL of 2×MEM and mixed well, and 5 dilutions were conducted, being 2 μM, 1 μM, 500 nM, 250 nM, and 125 nM, respectively; the maximum concentration of the compound 125 was 1 μM. Similarly, 400 μL Cidofovir was added to 7.6 mL of 2×MEM, oscillated and mixed well, then 4 mL mixed solution was taken and added to fresh 4 mL of 2×MEM and mixed well, and 5 dilutions were conducted, being 50 μM, 25 μM, 12.5 μM, 6.25 μM, and 3.125 μM, respectively); the diluted solution was put at 37° C. for further use. • 4. The viral solution was discarded, and agarose gel preheated at 56° C. was added to 2×MEM by the same volume and mixed well, and then 2 mL of mixed solution was added per well, and incubated at room temperature for 30 min (gel). • 5. […]

[2] = test system: MCF-7; experiment: In vitro inhibition test for cancer cell proliferation (MTT), MCF-7; assay type: cell-based; conditions: 24 h or 48 h after addition, unit inferred
[3] = test system: CFPAC-1 pancreatic cancer cells; experiment: In vivo inhibition test of cancer cell proliferation, CFPAC-1 transplant; parameters: species or system Balb/c naked mouse; conditions: 7 mg/kg, once every other three days, 7 times; gross tumor volume
Description: Test method: 3×10^7 CFPAC-1 pancreatic cancer cells were transplanted to subcutaneous tissues of armpit of a Balb/c naked mouse; administration was conducted when the tumor grew to 50-100 mm^3, 100-200 mm^3, and greater than 200 mm^3; the mouse was administered once every other three days, 7 times in total, and 7 mg/kg each time. Normal saline was injected in the control group. Tumor length and diameter were measured by calipers and weight of the moue was weighed until the next day of the final administration. Gross tumor volume was calculated by the following equation:
gross tumor volume (mm^3)=½×[short diameter (mm)]^2×long diameter (mm)

[4] = test system: rectal cancer cell HT29; experiment: In vitro proliferation inhibition, HT29; assay type: cell-based; conditions: unit inferred
Description: (§1) Test method: pancreatic cancer cells CFPAC-1 were cultured in a Dalbeco-improved Eagle medium with the addition of 10% FBS and 5% double-antibody. CFPAC-1 cancer cells were inoculated into a 96-well plate for incubation for 24 h; in the following day, test compounds having various concentrations of (100, 20, 10, 1, 0.1, 0.01, and 0.001 μM) and positive control agents were added per well; corresponding volume of fresh medium was added to blank control. After addition for 24 h or 48 h, cell proliferation was evaluated by chromogenic reaction of MTT formazan.
(§2) In addition, compounds (I), (II), (III), and (IV) of the present invention have good inhibition activity against the proliferation of other cancer cells, including non-small cell lung cancer cell (H460, H1299), liver tumor cell (HepG2), rectal cancer cell (HT29), leukemia cell (CCRF-CEM), prostate cancer cell (PC-3), ovarian carcinoma cell (SKOV-3), melanoma cell (A375), myeloma cell (RPMI-8226), esophageal carcinoma cell (TE-1), pancreatic cancer cell (CFPAC-1, PANC-1, SW1990, ASPC-1, and BXPC-3), bladder cancer cell (5637), and gastric cancer cell (KATO-III).

[5] = test system: melanoma cell A375; experiment: In vitro proliferation inhibition, A375; assay type: cell-based; conditions: unit inferred
Description: as §1, §2

[6] = test system: myeloma cell RPMI-8226; experiment: In vitro proliferation inhibition, RPMI-8226; assay type: cell-based; conditions: unit inferred
Description: as §1, §2

[7] = test system: HeLa; experiment: In vitro inhibition test for cancer cell proliferation (MTT), HeLa; assay type: cell-based; conditions: 24 h or 48 h after addition, unit inferred
[8] = test system: pancreatic cancer cell PANC-1; experiment: In vitro proliferation inhibition, PANC-1; assay type: cell-based; conditions: unit inferred
Description: as §1, §2

[9] = test system: pancreatic cancer cell BXPC-3; experiment: In vitro proliferation inhibition, BXPC-3; assay type: cell-based; conditions: unit inferred
Description: as §1, §2

[10] = test system: pancreatic cancer cell SW1990; experiment: In vitro proliferation inhibition, SW1990; assay type: cell-based; conditions: unit inferred
Description: as §1, §2

[11] = test system: L929; experiment: In vitro cell proliferation inhibition test (MTT), L929; assay type: cell-based; conditions: 24 h or 48 h after addition, unit inferred
[12] = test system: pancreatic cancer cells CFPAC-1; experiment: In vitro proliferation inhibition, CFPAC-1; assay type: cell-based; conditions: unit inferred
Description: as §1, §2

[13] = test system: prostate cancer cell PC-3; experiment: In vitro proliferation inhibition, PC-3; assay type: cell-based; conditions: unit inferred
Description: as §1, §2

[14] = test system: liver tumor cell HepG2; experiment: In vitro proliferation inhibition, HepG2; assay type: cell-based; conditions: unit inferred
Description: as §1, §2

[15] = test system: bladder cancer cell 5637; experiment: In vitro proliferation inhibition, 5637; assay type: cell-based; conditions: unit inferred
Description: as §1, §2

[16] = test system: pancreatic cancer cell ASPC-1; experiment: In vitro proliferation inhibition, ASPC-1; assay type: cell-based; conditions: unit inferred
Description: as §1, §2

[17] = test system: esophageal carcinoma cell TE-1; experiment: In vitro proliferation inhibition, TE-1; assay type: cell-based; conditions: unit inferred
Description: as §1, §2

[18] = test system: A549; experiment: In vitro inhibition test for cancer cell proliferation (MTT), A549; assay type: cell-based; conditions: 24 h or 48 h after addition, unit inferred
[19] = test system: non-small cell lung cancer cell H460; experiment: In vitro proliferation inhibition, H460; assay type: cell-based; conditions: unit inferred
Description: as §1, §2

[20] = test system: leukemia cell CCRF-CEM; experiment: In vitro proliferation inhibition, CCRF-CEM; assay type: cell-based; conditions: unit inferred
Description: as §1, §2

[21] = test system: ovarian carcinoma cell SKOV-3; experiment: In vitro proliferation inhibition, SKOV-3; assay type: cell-based; conditions: unit inferred
Description: as §1, §2

[22] = test system: non-small cell lung cancer cell H1299; experiment: In vitro proliferation inhibition, H1299; assay type: cell-based; conditions: unit inferred
Description: as §1, §2

[23] = test system: gastric cancer cell KATO-III; experiment: In vitro proliferation inhibition, KATO-III; assay type: cell-based; conditions: unit inferred
Description: as §1, §2

[24] = Compound toxicity test, body weight changes; assay type: in vivo, balb/c mice; conditions: tail intravenous injection, 5 mg/kg every day for 7 consecutive days
Description: Test method: the compounds 121, 123, 124, 125, 128, 132, 137, 138, 139, 140, 143, 144, 145, 146, and 147 in the examples of the present invention were administered every day via tail intravenous injection at a dose of 5 mg/kg for 7 consecutive days, and then body weight changes of the balb/c mice were monitored.

In the case of Nc1ccn(C[C@@H](CO)OCP(=O)(O)O)c(=O)n1 [Cidofovir, reference compound], the “non-CPE blank plaques observed” value [1] is reported as 4 days later, lots of blank plaques formed by non-CPE could be observed.

With CON=C1c2ccccc2C(=O)c2c1[n+](C)cn2C.[I-] [Compound 123, (E) and (Z)-4-(methoxylimino)-1,3-dimethyl-9-oxo-4,9-dihydro-1H-naphthol[2,3-d]imidazole-3-iodide] the IC50 [2] was 1800 nM, the “proliferation inhibition activity / inhibition ratio” value [3] was 100% and the IC50 [4] was 6700 nM. The IC50 [5] was 4650 nM, the IC50 [6] was 90900 nM and the IC50 [7] was 23000 nM. For the same molecule, the IC50 [8] was 760 nM, the IC50 [9] was 4 nM and the IC50 [10] was 8 nM. For the same molecule, the IC50 [11] was 3800 nM, the IC50 [12] was 7 nM and the IC50 [13] was 13500 nM. For the same molecule, the IC50 [14] was 10 nM, the IC50 [15] was 50 nM and the IC50 [16] was 7 nM. It also gave an IC50 [17] of 70 nM, an IC50 [18] of 7 nM and an IC50 [19] of 220 nM. For the same molecule, the IC50 [20] was 120 nM, the IC50 [21] was 90 nM and the IC50 [22] was 430 nM. It also gave an IC50 [23] of 10 nM.

In the case of CCON=C1c2ccccc2C(=O)c2c1[n+](C)cn2C.[I-] [Compound 124, (E) and (Z)-4-(ethoxylimino)-1,3-dimethyl-9-oxo-4,9-dihydro-1H-naphthol[2,3-d]imidazole-3-iodide], the IC50 [2] is reported as 3300 nM, the “proliferation inhibition activity / inhibition ratio” value [3] is reported as 100% and the IC50 [4] is reported as 7900 nM. It also gave an IC50 [5] of 5650 nM, an IC50 [6] of 99200 nM and an IC50 [7] of 11300 nM. The IC50 [8] was 890 nM, the IC50 [9] was 6 nM and the IC50 [10] was 9 nM. The IC50 [11] was 4600 nM, the IC50 [12] was 9 nM and the IC50 [13] was 23100 nM. It also gave an IC50 [14] of 20 nM, an IC50 [15] of 60 nM and an IC50 [16] of 8 nM. For the same molecule, the IC50 [17] was 80 nM, the IC50 [18] was 9 nM and the IC50 [19] was 340 nM. It also gave an IC50 [20] of 220 nM, an IC50 [21] of 100 nM and an IC50 [22] of 450 nM. The IC50 [23] was 20 nM.

In the case of Cn1c[n+](C)c2c1C(=O)c1ccccc1C2=NOCc1ccccc1.[I-] [Compound 125, (E) and (Z)-4-((benzyloxy)imino)-1,3-dimethyl-9-oxo-4,9-dihydro-1H-naphthol[2,3-d]imidazole-3-iodide], the IC50 [2] is reported as 4500 nM, the “proliferation inhibition activity / inhibition ratio” value [3] is reported as 100% and the IC50 [4] is reported as 5400 nM. It also gave an IC50 [5] of 2210 nM, an IC50 [6] of 89000 nM and an IC50 [7] of 5300 nM. For the same molecule, the IC50 [8] was 970 nM, the IC50 [9] was 3 nM and the IC50 [10] was 9 nM. The “effect on viral replication” value [1] was “inhibiting effect on viral replication”, the IC50 [11] was 45300 nM and the IC50 [12] was 6 nM. For the same molecule, the IC50 [13] was 26500 nM, the IC50 [14] was 9 nM and the IC50 [15] was 40 nM. For the same molecule, the IC50 [16] was 5 nM, the IC50 [17] was 60 nM and the IC50 [18] was 5 nM. The IC50 [19] was 160 nM, the IC50 [20] was 90 nM and the IC50 [21] was 90 nM. It also gave an IC50 [22] of 260 nM and an IC50 [23] of 9 nM.

With CC(C)ON=C1c2ccccc2C(=O)c2c1[n+](C)cn2C.[I-] [Compound 127, (E) and (Z)-4-(isopropoxyimino)-1,3-dimethyl-9-oxo-4,9-dihydro-1H-naphthol[2,3-d]imidazole-3-iodide] the IC50 [2] was 7900 nM, the IC50 [7] was 25100 nM and the “non-CPE blank plaques observed” value [1] was 5 days later, non-CPE blank plaque also appeared in the low concentration group. It also gave an IC50 [11] of 29600 nM and an IC50 [18] of 90 nM.

For Nc1ccn([C@@H]2O[C@H](CO)[C@@H](O)C2(F)F)c(=O)n1 [gemcitabine], the “condition and body weight changes of the mice” value [24] was “obviously reduced weight and are dispirited”.

In the case of “(E) and (Z)-4-(butoxyimino)-1,3-dimethyl-9-oxo-4,9-dihydro-1H-naphthol[2,3-d] [Compound 128]”, the IC50 [2] is reported as 2900 nM, the “proliferation inhibition activity / inhibition ratio” value [3] is reported as 100% and the IC50 [4] is reported as 9800 nM. The IC50 [5] was 1660 nM, the IC50 [6] was 78900 nM and the IC50 [7] was 4800 nM. It also gave an IC50 [8] of 100 nM, an IC50 [9] of 6 nM and an IC50 [10] of 9 nM. For the same molecule, the IC50 [11] was 6500 nM, the IC50 [12] was 8 nM and the IC50 [13] was 8800 nM. For the same molecule, the IC50 [14] was 20 nM, the IC50 [15] was 10 nM and the IC50 [16] was 8 nM. It also gave an IC50 [17] of 9 nM, an IC50 [18] of 4 nM and an IC50 [19] of 140 nM. It also gave an IC50 [20] of 530 nM, an IC50 [21] of 80 nM and an IC50 [22] of 170 nM. For the same molecule, the IC50 [23] was 9 nM.
